The source of these data is patent publication US20030023104A1, “Therapeutic compound - fatty acid conjugates” (COMMONWEALTH SCIENTIFIC AND INDUSTRIAL RESEARCH ORGANISATION, priority 1995, published 2003).

The test system of one data set is B16 melanoma cells. As to the kind of experiment: Tumour Cytotoxicity Model (B16 melanoma in C57 mice). Type of data set: in vivo, C57 black mice. The arrangement: Mean (standard error) of B16 tumour volume adjusted for the variation in initial volume: scale not given here. The settings on record: for difference in tumour volume from the Vehicle group (95% level): 0.5 mg and 1.0 mg groups; for Mean (standard error) of B16 tumour volume adjusted for the variation in initial volume: statistically modified tumour volume; for B16 Tumour Volume: individual mice. How it is done:
Groups of C57 black mice were given an initiation dose of 2×10^5 B16 melanoma cells as an intradermal injection. The cells were suspended in MEM without serum. The abdomen was clipped and 100 μl of cells + MEM was injected. […] The tumours were measured with a micrometer and photographed just prior to the injection of drug (day 8-10).
The cytotoxic drugs and their fatty acid conjugates were dissolved or suspended in 4:1 soy bean oil:ethyl oleate. A 10 mg/ml or a 20 mg/ml solution of each parent drug or the fatty acid conjugate made to the same molar concentration as the parent drug was then injected into the same region as the tumour at a dose of 0.5 mg or 1 mg. The tumours were then photographed, measured and re-injected every two to three days.

Data set [1] has as its system pain response on heated plate. The following applies: for mean time response: standard error of each mean ±2.86.
Experimental: The biological activities of Morphine (Mo) and fatty acid conjugates were tested in an antinociceptive assay using mice. Various doses and duration of pain-killing effect of the drugs were examined.
Quackenbush Strain mice (male, 5-week-old, approximately 30 g live weight) were used for the experiments. Animals were given free access to food and water prior to and during the experiment. Animals were divided into groups of 12 and individually weighed. The mean weight for each group was calculated. Mice were then placed on a metal block heated to 50° C. and the time taken for the animals to show signs of discomfort was measured (baseline response: control). Mice were then injected intraperitoneally (ip) with various doses of Morphine or Morphine-fatty acid conjugate. Morphine was made up in a H2O solution and Morphine-fatty acids were made up in an emulsion containing 10% glycerylmonooleate, 21% Miglyol, 6% ethanol, 24% Tween 80 (33%) and 39% H2O. 0.2 ml of appropriate solution was injected ip into each mouse. At different times after injection, responses on the heated plate were measured. In each experiment 3 doses of Morphine and Morphine-fatty acid and 2 time points were tested. A single mouse was used for each treatment and the entire experiment repeated at least 3 times. […] Members of the panel were asked to score mice behaviour according to the following key:
0=agitated mouse, distressed
1=showing mild discomfort
2=not agitated or uncomfortable but still alert
3=placid. docile; not at all worried.
Results from the panel were averaged.
The test system of data set [2] is reserpine-induced catatonia. As to the kind of experiment: Anti-reserpine activity (reserpine-induced catatonia). The settings on record: for Response at 15 min.: individual mice 1 and 2. On the procedure:
The biological activities of L-DOPA and L-DOPA-GTP2 were tested in an animal model of Parkinsons' disease, a condition caused by low levels of the neurotransmitter dopamine in the brain. Mice were pretreated with reserpine which depletes dopamine and causes animals to become catatonic. The ability of L-DOPA and L-DOPA-GTP2 to reverse this condition was measured.
Mice were injected intraperitoneally (ip) with reserpine (5 mg/kg) and 4 hours later tested for catatonia. A mouse was judged to be catatonic if it was able to stay on a stopper of 4.5 cm diameter for 5 minutes. Catatonic animals were then injected ip with L-DOPA or L-DOPA-GTP2 suspended in Miglyol (200-400 μl/mouse) immediately before use and observed.

For a further data set, the system named is UVB induced oedema. As to the kind of experiment: UVB erythema assay (net skin fold thickness). Type of data set: in vivo, Skh-1 hairless albino female mice.
The mark [3] stands for this setting: DOPA moiety 364 mg/kg ip, 20 min.
[4] abbreviates: DOPA moiety 637 mg/kg ip, 20 min.

Where “and” joins values, the source holds several entries; their conditions need not be identical. Equal values may be shown once. Read-outs that look alike come from different tables or passages of the source.

As for `CCCCCCCCCCCCCCCC(=O)OCC(CO)(COC(=O)CCCCCCCCCCCCCCC)NC(=O)CNC(=O)CC[C@H](NC(=O)c1ccc(N(C)Cc2cnc3nc(N)nc(N)c3n2)cc1)C(=O)O` [MTXGTP2, Methotrexate-γ-Gly-Tris-Dipalmitate], in the data set with B16 melanoma cells, the “difference in tumour volume from the Vehicle group (95% level)” value is “significant difference”. For the same compound, the “Mean (standard error) of B16 tumour volume adjusted for the variation in initial volume” value (shortened to “Mean (standard error)”) in the data set on B16 melanoma cells (13/11/95, 0.5 mg) is 2.04 (0.565); in the data set on B16 melanoma cells (13/11/95, 1.0 mg), 2.30 (0.536); in the data set on B16 melanoma cells (15/11/95, 0.5 mg), 3.37 (0.884); in the data set on B16 melanoma cells (15/11/95, 1.0 mg), 3.40 (0.839); in the data set with B16 melanoma cells (16/11/95, 0.5 mg), 3.76 (1.06); in the data set on B16 melanoma cells (16/11/95, 1.0 mg), 4.13 (1.01). For the same compound, the “Mean (standard error)” value was 4.03 (1.28) in the data set with B16 melanoma cells (17/11/95, 0.5 mg) and 4.89 (1.22) in the data set with B16 melanoma cells (17/11/95, 1.0 mg). The “B16 Tumour Volume” value in the data set with B16 melanoma cells (Day 1, drug dose 0.5 mg injected at tumour region) is 0.5 mm^2 (2×) and 2.7 mm^2 and 16.6 mm^2; with B16 melanoma cells (Day 1, drug dose 1.0 mg) it was 0.1 mm^2 and 8.2 mm^2 (2×) and 10.8 mm^2; with B16 melanoma cells (Day 3, drug dose 0.5 mg), 0 mm^2 (3×) and 16.6 mm^2; with B16 melanoma cells (Day 3, drug dose 1.0 mg), 0.1 mm^2 and 10.8 mm^2 and 0 mm^2 and 30.4 mm^2; in the data set on B16 melanoma cells (Day 5, drug dose 0.5 mg), 0 mm^2 (2×) and 11.8 mm^2 and 64.5 mm^2; in the data set on B16 melanoma cells (Day 5, drug dose 1.0 mg) it was 0.5 mm^2 and 21.8 mm^2 and 0 mm^2 and 142.5 mm^2. Further, the “B16 Tumour Volume” value in the data set on B16 melanoma cells (Day 6, drug dose 0.5 mg) is 0 mm^2 (2×) and 19.8 mm^2 and 77.6 mm^2; with B16 melanoma cells (Day 6, drug dose 1.0 mg), 0.5 mm^2 and 46.8 mm^2 and 0 mm^2 and 261.8 mm^2; with B16 melanoma cells (Day 7, drug dose 0.5 mg), 0 mm^2 (2×) and 26 mm^2 and 113 mm^2; in the data set with B16 melanoma cells (Day 7, drug dose 1.0 mg) it was 14 mm^2 and 50 mm^2 and 0 mm^2 and 379 mm^2.
Take `CN(Cc1cnc2nc(N)nc(N)c2n1)c1ccc(C(=O)N[C@@H](CCC(=O)O)C(=O)O)cc1` [Methotrexate, reference compound]: the “difference in tumour volume from the Vehicle group (95% level)” value in the data set with B16 melanoma cells is listed as “no significant difference”. In addition, the “Mean (standard error)” value is reported as 3.58 (0.610) in the data set with B16 melanoma cells (13/11/95, 0.5 mg); 5.47 (0.955) with B16 melanoma cells (15/11/95, 0.5 mg); 6.07 (1.15) in the data set on B16 melanoma cells (16/11/95, 0.5 mg); 7.24 (1.38) in the data set with B16 melanoma cells (17/11/95, 0.5 mg). Further, the “B16 Tumour Volume” value in the data set on B16 melanoma cells (Day 1, drug dose 0.5 mg injected at tumour region, listed as MTX) is 0.5 mm^2 and 3.8 mm^2 and 14.1 mm^2 and 26 mm^2; with B16 melanoma cells (Day 3, drug dose 0.5 mg, listed as MTX), 13.6 mm^2 and 4.2 mm^2 and 30.4 mm^2 and 86 mm^2; in the data set with B16 melanoma cells (Day 5, drug dose 0.5 mg, listed as MTX), 73.5 mm^2 and 14.1 mm^2 and 86.0 mm^2 and 219.4 mm^2; in the data set on B16 melanoma cells (Day 6, drug dose 0.5 mg, listed as MTX) it was 125.1 mm^2 and 14.1 mm^2 and 215.0 mm^2 and 266.5 mm^2; with B16 melanoma cells (Day 7, drug dose 0.5 mg, listed as MTX), 190 mm^2 and 21 mm^2 and 234 mm^2 and 515 mm^2.
On to `CCCCCCCCCCCCCCCC(=O)OCC(COC(=O)CCCCCCCCCCCCCCC)(COC(=O)CCCCCCCCCCCCCCC)NC(=O)CNC(=O)CCC(=O)Oc1ccc2c3c1O[C@H]1[C@@H](O)C=C[C@H]4[C@@H](C2)N(C)CC[C@@]341` [Mo-Suc-GTP3, Morphine-Suc-Gly-Tris Tripalmitate], for which the mean time response in data set [1] (1 mg Mo/kg ip, 4 hr) was found to be 23.5 s; in data set [1] (1 mg Mo/kg ip, 6 hr) it was 27.8 s; in data set [1] (10 mg Mo/kg ip, 4 hr), 29.8 s; in data set [1] (10 mg Mo/kg ip, 6 hr) it was 29.0 s. Moreover, the “duration of pain-killing effect compared with morphine” value in data set [1] (ip injection) is “longer lasting effect than morphine”.
On to `N[C@@H](Cc1ccc(O)c(O)c1)C(=O)O` [L-DOPA, 3-(3,4-dihydroxyphenyl)-alanine, reference compound], for which the “Anti-Reserpine Activity (response)” value in data set [2] (setting [3]) and in data set [2] (setting [4]) was “+” each time. Further, the “Response at 15 min.” value was “−” in data set [2] (L-DOPA moiety 9.1 mg/kg ip); “− and +” in data set [2] (L-DOPA moiety 91 mg/kg ip); “+” in data set [2] (L-DOPA moiety 364 mg/kg ip); “+” in data set [2] (L-DOPA moiety 637 mg/kg ip); “+” in data set [2] (L-DOPA moiety 910 mg/kg ip). Also, the “doses at which all catatonic animals became active” value in data set [2] (ip, Experiment 1) is at least 364 mg/kg. Besides, in data set [2] (mouse, in vivo, ip), the “toxic effects observed in treated catatonic mice” value was “toxic effects of L-DOPA such as rearing, salivating and jumping”.
Consider `CCCCCCCCCCCCCCCC(=O)OCC(CO)(COC(=O)CCCCCCCCCCCCCCC)NC(=O)CNC(=O)[C@@H](N)Cc1ccc(O)c(O)c1` [L-DOPA-GTP2, DOPA-Gly-Tris-Dipalmitate], for which the “time after administration at which signs of recovery showed” value in data set [2] (364 mg DOPA/kg ip) was determined as 7 h; in data set [2] (637 mg DOPA/kg ip), 5 h. Further, the “recovery from catatonia at low doses” value in data set [2] (9.1 and 91 mg DOPA/kg ip) is recorded as “did not recover”. The “Anti-Reserpine Activity (response)” value in data set [2] (DOPA moiety 9.1 mg/kg ip, 20 min) is “− −”; in data set [2] (DOPA moiety 9.1 mg/kg ip, 2 hr), “− −”; in data set [2] (DOPA moiety 9.1 mg/kg ip, 5 hr), “− −”; in data set [2] (DOPA moiety 9.1 mg/kg ip, 6 hr), “− −”; in data set [2] (DOPA moiety 9.1 mg/kg ip, 7 hr), “− −”; in data set [2] (DOPA moiety 9.1 mg/kg ip, 8 hr), “− −”. In addition, the “Anti-Reserpine Activity (response)” value in data set [2] (DOPA moiety 91 mg/kg ip, 20 min) is reported as “− −”; in data set [2] (DOPA moiety 91 mg/kg ip, 2 hr) it was “− −”; in data set [2] (DOPA moiety 91 mg/kg ip, 5 hr) it was “− −”; in data set [2] (DOPA moiety 91 mg/kg ip, 6 hr), “− −”; in data set [2] (DOPA moiety 91 mg/kg ip, 7 hr) it was “− −”; in data set [2] (DOPA moiety 91 mg/kg ip, 8 hr), “− −”. Also, the “Anti-Reserpine Activity (response)” value is “− −” in data set [2] (setting [3]); “− −” in data set [2] (DOPA moiety 364 mg/kg ip, 2 hr); “− −” in data set [2] (DOPA moiety 364 mg/kg ip, 5 hr); “− −” in data set [2] (DOPA moiety 364 mg/kg ip, 6 hr); “M —” in data set [2] (DOPA moiety 364 mg/kg ip, 7 hr); “M M” in data set [2] (DOPA moiety 364 mg/kg ip, 8 hr). Besides, the “Anti-Reserpine Activity (response)” value in data set [2] (setting [4]) is “−”; in data set [2] (DOPA moiety 637 mg/kg ip, 2 hr) it was “−”. Moreover, the “toxic effects observed in treated catatonic mice” value in data set [2] (ip in Miglyol, active doses) is “did not exhibit the high activity level and toxic effects”.
For `CCCCCCCCCCCCCCCC(=O)OCC(COC(=O)CCCCCCCCCCCCCCC)(COC(=O)CCCCCCCCCCCCCCC)NC(=O)CNC(=O)CCC(=O)OCC(=O)C1(O)CCC2C3CCC4=CC(=O)CCC4(C)C3C(O)CC21C` (stereo not drawn) [HC-Suc-GTP3, Hydrocortisone-Suc-Gly-Tris-Tripalmitate], the “Mean Net Skin Fold Thickness” value is on record as 93.8 ± 9.8 10^−2 mm in the data set with UVB induced oedema (0.5 mg/mouse topical in ethanol, applied Day −5 (5 days prior to UV exposure), 2MED UVB, measured 24 h); 55.8 ± 11.7 10^−2 mm in the data set on UVB induced oedema (0.5 mg/mouse topical, applied Day 0 after UV exposure, 2MED UVB); 86.7 ± 9.4 10^−2 mm in the data set with UVB induced oedema (0.5 mg/mouse topical, applied Day −3 (3 days prior to UV exposure), 2MED UVB); 27.9 ± 7.5 with UVB induced oedema (1 mg/mouse (1% w/v) topical, applied Day 0 after UV exposure); 62.9 ± 4.0 in the data set with UVB induced oedema (1 mg/mouse (1% w/v) topical, applied Day −3); 103.8 ± 3.0 in the data set on UVB induced oedema (1 mg/mouse (1% w/v) topical, applied Day −5). Also, in the data set on UVB induced oedema (0.5 mg/mouse, applied at Day 0, post UVB exposure), the “activity equivalent to % of the hydrocortisone activity in protecting against UVB induced oedema” value is given as “approximately 50%”.
